SMILES strings stand for the structures.

Among the data in patent US20240327434A1, “FUSED TETRACYCLIC COMPOUND, PREPARATION METHOD THEREFOR AND APPLICATION THEREOF IN MEDICINE” (Jiangsu Hengrui Pharmaceuticals Co., Ltd., priority 2021, published 2024) are Kd and IC50 values, retold here.

Experiment [1] addresses KRAS protein subtype G12D (Avi-KRAS-G12D) (Homo sapiens (Human), UniProt P01116, G12D). The experiment is described as follows: SPR affinity for KRAS protein subtype G12D (Biacore 8K). The note with it: single-cycle kinetic mode, 1:1 model, read-out: G12D KD (unit mol/L). Format: binding. On the procedure: (§1) Biotinylated Avi-KRAS-WT or Avi-KRAS-G12D was diluted to 20 μg/mL with 1x HBS-P+(Cat. #BR1006-71) buffer containing 100 mM MgCl2, and then flowed through SA (Cat. #BR1005-31) biosensing chip channel 2 for 420 s to obtain a coupling level of approximately 5000-7000 RU. Then samples of small molecular compounds were injected for 120 s in an ascending order, and then were dissociated for 720 s. The experiment employed a single-cycle kinetic mode. Reaction signals were detected in real time using a Biacore 8K instrument to obtain association and dissociation curves. After the experiment ended, data analysis was performed using Biacore 8K evaluation software, and affinity data were obtained by performing data fitting using a 1:1 model.
For orientation: Surface plasmon resonance follows binding to a sensor surface in real time, without labels.

The target in experiment [2] is KRAS protein subtype WT (Avi-KRAS-WT) (Homo sapiens (Human), UniProt P01116). Description: SPR affinity for KRAS protein subtype WT (Biacore 8K). Format: binding. The following applies: single-cycle kinetic mode, 1:1 model, read-out: WT KD (unit mol/L). How it is done: as §1
The test system of experiment [3] is ERK phosphorylation of AGS cells. The experiment is described as follows: Inhibition of ERK phosphorylation of AGS cells (HTRF method). Format: cell-based. The following applies: Homo sapiens, 1 h compound incubation, phosphorylated ERK/total ERK ratio, read-out: AGS/ IC50 (nM), inhibitory activity for ERK phosphorylation. How it is done: In the experiment, the inhibition effect of the compounds on ERK phosphorylation of the cells was detected, and the inhibition effect of the compounds disclosed herein on the KRAS target was evaluated according to the IC50.
AGS cells (Nanjing Cobioer, CBP60476) were cultured in RPMI1640 (Hyclone, SH30809.01) complete medium containing 10% fetal bovine serum. On the first day of the experiment, the AGS cells were seeded into a 96-well plate with complete medium at a density of 40,000 cells/well to form 190 μL of cell suspension per well. The plate was incubated overnight in a cell incubator at 37° C. with 5% CO2.
The next day, 10 μL of serially-diluted test compound prepared from the complete medium was added to each well. The final concentrations of the compound were 9 concentration points obtained by 5-fold serial dilution from 10 μM. A blank control containing 0.5% DMSO was set. The well plate was incubated in a cell incubator at 37° C. with 5% CO2 for 1 h. After completion of incubation, the 96-well cell culture plate was taken out, the medium was removed by pipetting, 200 μL PBS (Shanghai BasalMedia Technologies Co., Ltd., B320) was added to each well, and the cells were washed once. PBS was removed by pipetting, 50 μL of lysis buffer (Cisbio, 64KL1FDF) containing a blocking solution (blocking reagent, Cisbio, 64KB1AAC) was added to each well, and the well plate was lysed on a shaker for 40 min at room temperature with shaking. After lysis, the lysate was pipetted and mixed well, 16 μL of lysate was transferred to two HTRF 96-well assay plates (Cisbio, 66PL96100) per well, and then 4 μL of premixed phosphorylated ERK1/2 antibody solution (Cisbio, 64AERPEG) or 4 μL of premixed total ERK1/2 antibody solution (Cisbio, 64NRKPEG) was added to these two plates. The microplate was sealed with a sealing membrane, centrifuged for 1 min in a microplate centrifuge, and incubated overnight at room temperature in the dark. On the third day, the fluorescence values at an excitation wavelength of 337 nm and at emission wavelengths of 665 nm and 620 nm were read using an ENVISION multifunctional microplate reader (PerkinElmer, ENVISION).

The subject of another experiment is GP2d cells. The experiment is described as follows: Inhibition of 3D proliferation of GP2d cells (CellTiter-Glo 3D). It is filed as cell-based. The note with it: 120 h incubation, read-out: GP2d/ IC50 (nM), inhibitory activity for 3D proliferation. On the procedure: (§2) The inhibition effect of the compounds disclosed herein on the KRAS target was evaluated by testing the 3D proliferation inhibition effect of the compounds disclosed herein on GP2d and AGS cells.
GP2d cells (Nanjing Cobioer, CBP60010) were cultured in a complete medium, namely DMEM/high glucose medium (Hyclone, SH30243.01) containing 10% fetal bovine serum (Corning, 35-076-CV). On the first day of the experiment, GP2d cells were seeded into a 96-well low adsorption plate (Corning, CLS7007-24EA) with complete medium at a density of 1,000 cells/well to form 90 μL of cell suspension per well. The plate was centrifuged at 2,000 rpm for 5 min at room temperature and then incubated overnight in a cell incubator at 37° C. with 5% CO2.
The next day, 10 μL of serially-diluted test compound prepared from the complete medium was added to each well. […] A blank control containing 0.5% DMSO was set. The well plate was incubated in a cell incubator at 37° C. with 5% CO2 for 120 h.
For orientation: Cellular ATP, detected with luciferase, serves as a proxy for viable cell number.

The test system of a further experiment is AGS cells. Description: Inhibition of 3D proliferation of AGS cells (CellTiter-Glo 3D). It is filed as cell-based. The following applies: Homo sapiens, 120 h incubation, read-out: AGS/ IC50 (nM), inhibitory activity for 3D proliferation. How it is done:
as §2
AGS cells (Nanjing Cobioer, CBP60476) were cultured in a complete medium, namely RPMI1640 medium (Hyclone, SH30809.01) containing 10% fetal bovine serum (Corning, 35-076-CV). On the first day of the experiment, the AGS cells were seeded into a 96-well low adsorption plate (Corning, CLS7007-24EA) at a density of 1,000 cells/well using complete medium to form 90 μL of cell suspension per well. The plate was centrifuged at 2,000 rpm for 5 min at room temperature and then incubated overnight in a cell incubator at 37° C. with 5% CO2.
The next day, 10 μL of serially-diluted test compound prepared from the complete medium was added to each well. […] On the seventh day, the 96-well cell culture plate was taken out, 50 μL CellTiter-Glo® 3D reagent (Promega, G9682) was added into each well, the plate was shaken at room temperature for 25 min, pipetted and mixed well, 50 μL of the solution was transferred into a white impermeable 96-well plate (PE, 6005290), and the luminescence signal values were read using a multifunctional microplate reader (PerkinElmer, ENVISION).

Chain of KRAS protein subtype WT (Avi-KRAS-WT) (P01116 whole entry): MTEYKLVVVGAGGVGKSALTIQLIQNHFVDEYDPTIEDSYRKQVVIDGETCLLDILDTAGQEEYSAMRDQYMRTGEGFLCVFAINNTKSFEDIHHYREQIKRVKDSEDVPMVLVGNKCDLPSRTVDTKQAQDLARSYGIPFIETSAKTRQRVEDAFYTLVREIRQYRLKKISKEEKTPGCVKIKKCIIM
Chain of KRAS protein subtype G12D (Avi-KRAS-G12D) (P01116 whole entry G12D): as the sequence (P01116 whole entry) above, with G12D counted along it

On to `CCc1c(F)ccc2cc(O)cc(-c3nc4c5c(nc(OC[C@@]67CCCN6C[C@H](F)C7)nc5c3F)N3C[C@H]5CC[C@H](N5)[C@H]3CO4)c12` [Example 9-p1, 5-Ethyl-6-fluoro-4-((5aS,6S,9R)-1-fluoro-12-(((2R,7aS)-2-fluorotetrahydro-1H-pyrrolizin-7a(5H)-yl)methoxy)-5a,6,7,8,9,10-hexahydro-5H-4-oxa-3,10a, 11,13,14-pentaaza-6,9-methanonaphtho[1,8-ab]heptalen-2-yl)naphthalen-2-ol], for which the Kd is 0.03 nM in experiment [1] and 1.54 nM in experiment [2]. For `CCc1cccc2cc(O)cc(-c3cc4c5c(nc(OC[C@@]67CCCN6C[C@H](F)C7)nc5c3F)N3CC5CCC(N5)C3CO4)c12` (mixture of isomers) [Diastereomeric (1:1) mixture of 11-p1 and 11-p2, 5-Ethyl-4-(1-fluoro-13-(((2R,7aS)-2-fluorotetrahydro-1H-pyrrolizin-7a(5H)-yl)methoxy)-5a,6,7,8,9,10-hexahydro-5H-6,9-epiminoazepino[2′,1′: 3,4][1,4]oxazepino[5,6,7-de]quinazolin-2-yl) naphthalen-2-ol], the IC50 in experiment [3] is 15.6 nM; in the experiment with GP2d cells, 62.5 nM.

Consider `CCc1cccc2cc(O)cc(-c3nc4c5c(nc(OC[C@@]67CCCN6C[C@H](F)C7)nc5c3F)N3CC5CCC(N5)C3CO4)c12` (mixture of isomers) [Diastereomeric (1:1) mixture of 4-p1 and 4-p2, 5-Ethyl-4-(1-fluoro-12-(((2R,7aS)-2-fluorotetrahydro-1H-pyrrolizin-7a(5H)-yl)methoxy)-5a,6,7,8,9,10-hexahydro-5H-4-oxa-3,10a,11,13,14-pentaaza-6,9-methanonaphtho[1,8-ab]heptalen-2-yl)naphthalen-2-ol], for which, in experiment [3], the IC50 turned out to be 1.35 nM. In the case of `CCc1cccc2cc(O)cc(-c3nc4c5c(nc(OC[C@@]67CCCN6C[C@H](F)C7)nc5c3F)N3C[C@H]5CC[C@H](N5)[C@H]3CO4)c12` [Example 4-p1, 5-Ethyl-4-((5aS,6S,9R)-1-fluoro-12-(((2R,7aS)-2-fluorotetrahydro-1H-pyrrolizin-7a(5H)-yl)methoxy)-5a,6,7,8,9,10-hexahydro-5H-4-oxa-3,10a, 11,13,14-pentaaza-6,9-methanonaphtho[1,8-ab]heptalen-2-yl)naphthalen-2-ol], the Kd in experiment [1] came to 0.14 nM; in experiment [2], 3.4 nM. For the compound `CCc1c(F)ccc2cc(O)cc(-c3nc4c5c(nc(OCC6(CN7C[C@H]8C[C@H]8[C@H]7CO)CC6)nc5c3F)N3C[C@H]5CC[C@H](N5)[C@H]3CO4)c12` [Example 22, 5-Ethyl-6-fluoro-4-((5aS,6S,9R)-1-fluoro-12-((1-(((1R,2S,5S)-2-(hydroxymethyl)-3-azabicyclo[3.1.0]hex-3-yl)methyl)cyclopropyl)methoxy)-5a,6,7,8,9,10-hexahydro-5H-4-oxa-3,10a, 11,13,14-pentaaza-6,9-methanonaphtho[1,8-ab]heptalen-2-yl)naphthalen-2-ol], the IC50 in experiment [3] turned out to be 10.2 nM; in the experiment with GP2d cells, 9.6 nM.

For the compound `Oc1cc(-c2nc3c4c(nc(OC[C@@]56CCCN5C[C@H](F)C6)nc4c2F)N2C[C@H]4CC[C@H](N4)[C@H]2CO3)c2c(F)c(F)ccc2c1` [Example 8-p1, 5,6-Difluoro-4-((5aS,6S,9R)-1-fluoro-12-(((2R,7aS)-2-fluorotetrahydro-1H-pyrrolizin-7 a(5H)-yl)methoxy)-5a,6,7,8,9,10-hexahydro-5H-4-oxa-3,10a,11,13,14-pentaaza-6,9-methanonaphtho[1,8-ab]heptalen-2-yl)naphthalen-2-ol], the results for the Kd in experiment [1] and in experiment [2] were 0.1 nM and 3.8 nM, respectively.

Turning to `CCc1c(F)ccc2cc(O)cc(-c3nc4c5c(nc(OCC6(CN7CC8CC8(CO)C7)CC6)nc5c3F)N3C[C@H]5CC[C@H](N5)[C@H]3CO4)c12` (stereo partly drawn) [Example 23, 5-Ethyl-6-fluoro-4-((5aS,6S,9R)-1-fluoro-12-((1-((1-(hydroxymethyl)-3-azabicyclo[3.1.0]hex-3-yl)methyl)cyclopropyl)methoxy)-5a,6,7,8,9,10-hexahydro-5H-4-oxa-3,10a, 11,13,14-pentaaza-6,9-methanonaphtho[1,8-ab]heptalen-2-yl)naphthalen-2-ol], the IC50 in experiment [3] was 4 nM; in the experiment with AGS cells it was 108 nM; in the experiment with GP2d cells, 8.8 nM. With `Oc1cc(Cl)c(C2CC2)c(-c2nc3c4c(nc(OC[C@@]56CCCN5C[C@H](F)C6)nc4c2F)N2C[C@H]4CC[C@H](N4)[C@H]2CO3)c1` [Example 6-p1, 3-Chloro-4-cyclopropyl-5-((5aS,6S,9R)-1-fluoro-12-(((2R,7aS)-2-fluorotetrahydro-1H-pyrrolizin-7a(5H)-yl)methoxy)-5a,6,7,8,9,10-hexahydro-5H-4-oxa-3,10a,11,13,14-pentaaza-6,9-methanonaphtho[1,8-ab]heptalen-2-yl)phenol], the Kd in experiment [1] was determined as 0.1 nM; in experiment [2], 7 nM. For `Oc1cc(-c2cc3nc(OC[C@@]45CCCN4C[C@H](F)C5)nc4c3c(n2)OCC2C3CCC(CN42)N3)c2c(F)cccc2c1` (mixture of isomers) [Diastereomeric (1:1) mixture of 1-p1 and 1-p2, 5-Fluoro-4-(12-(((2R,7aS)-2-fluorotetrahydro-1 H-pyrrolizin-7a(5H)-yl)methoxy)-5a,6,7,8,9,10-hexahydro-5H-4-oxa-3,10a,11,13,14-pentaaza-6,9-methanonaphtho[1,8-ab]heptalen-2-yl) naphthalen-2-ol], the IC50 in experiment [3] was 94.1 nM.

On to `CCc1cccc2cc(O)cc(-c3cc4nc(OC[C@@]56CCCN5C[C@H](F)C6)nc5c4c(n3)OCC3C4CCC(CN53)N4)c12` (mixture of isomers) [Diastereomeric (1:1) mixture of 2-p1 and 2-p2, 5-Ethyl-4-(12-(((2R,7aS)-2-fluorotetrahydro-1H-pyrrolizin-7a(5H)-yl)methoxy)-5a,6,7,8,9,10-hexahydro-5H-4-oxa-3,10a,11,13,14-pentaaza-6,9-methanonaphtho[1,8-ab]heptalen-2-yl) naphthalen-2-ol], for which the Kd in experiment [1] was 0.4 nM; in experiment [2] it was 32.4 nM.
